Test results: the supplement of paper PMC10307832

Legend:
Experiment in all cases: relative viability (nuclei count vs DMSO), 5 days (fraction); higher = more cells survive
RU-SKI 43 + Dasatinib = compound: CC[C@@H](C)CNCC(=O)N1CCC2=C([C@@H]1COC3=CC=CC(=C3)C)C=CS2 [RU-SKI 43] + Cc1nc(Nc2ncc(C(=O)Nc3c(C)cccc3Cl)s2)cc(N2CCN(CCO)CC2)n1 [Dasatinib] (partner 0.075 µM)
Summary of the method: (§1)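 Lung cancer cell lines in 1536-well plates were dosed by pin tool the day after seeding, either with one drug alone or with a fixed anchor-drug dose plus five library-drug doses (not always all listed) in √10 steps. After 5 days, cells were fixed and their nuclei stained in one step (final 0.05% Triton X-100, 1% formaldehyde, 1 ug/ml Hoechst), then counted on 4× images. Relative viability is the nuclei count in treated wells divided by that in vehicle wells. Values are medians of duplicate plates.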

Irinotecan + Palbociclib = compound: CCc1c2c(nc3ccc(OC(=O)N4CCC(N5CCCCC5)CC4)cc13)-c1cc3c(c(=O)n1C2)COC(=O)[C@]3(O)CC [Irinotecan] + CC(=O)c1c(C)c2cnc(Nc3ccc(N4CCNCC4)cn3)nc2n(C2CCCC2)c1=O [Palbociclib] (partner 0.5 µM)
Summary of the method: as §1

Irinotecan + Navitoclax = compound: CCc1c2c(nc3ccc(OC(=O)N4CCC(N5CCCCC5)CC4)cc13)-c1cc3c(c(=O)n1C2)COC(=O)[C@]3(O)CC [Irinotecan] + CC1(C)CCC(c2ccc(Cl)cc2)=C(CN2CCN(c3ccc(C(=O)NS(=O)(=O)c4ccc(N[C@H](CCN5CCOCC5)CSc5ccccc5)c(S(=O)(=O)C(F)(F)F)c4)cc3)CC2)C1 [Navitoclax] (partner 0.5 µM)
Summary of the method: as §1

MK-8033 + AZD7762 = compound: Cn1cc(-c2cnc3ccc4ccc(CS(=O)(=O)NCc5ccccn5)cc4c(=O)c3c2)cn1 [MK-8033] + NC(=O)Nc1cc(-c2cccc(F)c2)sc1C(=O)N[C@H]1CCCNC1 [AZD7762] (partner 0.2 µM)
Summary of the method: as §1

Row | Cell Line | relative viability (RU-SKI 43 + Dasatinib; first compound 0.1 µM) | relative viability (RU-SKI 43 + Dasatinib; first compound 0.3162 µM) | relative viability (RU-SKI 43 + Dasatinib; first compound 1 µM) | relative viability (RU-SKI 43 + Dasatinib; first compound 3.162 µM) | relative viability (RU-SKI 43 + Dasatinib; first compound 10 µM) | relative viability (Irinotecan + Palbociclib; first compound 0.6325 µM) | relative viability (Irinotecan + Palbociclib; first compound 2 µM) | relative viability (Irinotecan + Palbociclib; first compound 6.325 µM) | relative viability (Irinotecan + Palbociclib; first compound 20 µM) | relative viability (Irinotecan + Navitoclax; first compound 0.6325 µM) | relative viability (Irinotecan + Navitoclax; first compound 2 µM) | relative viability (Irinotecan + Navitoclax; first compound 6.325 µM) | relative viability (Irinotecan + Navitoclax; first compound 20 µM) | relative viability (MK-8033 + AZD7762; first compound 0.02 µM) | relative viability (MK-8033 + AZD7762; first compound 0.06325 µM) | relative viability (MK-8033 + AZD7762; first compound 0.2 µM) | relative viability (MK-8033 + AZD7762; first compound 0.6325 µM) | relative viability (MK-8033 + AZD7762; first compound 2 µM)
1 | LK-2 | 0.308 | 0.248 | 0.315 | 0.295 | 0.251 | 0.594 | 0.72 | 0.227 | 0.245 | 0.858 | 0.754 | 0.406 | 0.255 | 0.454 | 0.288 | 0.316 | 0.363 | 0.427
2 | LOU-NH91 | 0.553 | 0.604 | 0.624 | 0.581 | 0.554 | 0.509 | 0.494 | 0.418 | 0.263 | 0.578 | 0.526 | 0.32 | 0.275 | 0.816 | 0.624 | 0.76 | 0.807 | 0.814
3 | LU99A | 0.486 | 0.614 | 0.602 | 0.587 | 0.599 | 0.173 | 0.179 | 0.153 | 0.172 | 0.188 | 0.231 | 0.195 | 0.242 | 0.522 | 0.27 | 0.367 | 0.458 | 0.317
4 | LXF-289 | 0.217 | 0.21 | 0.218 | 0.231 | 0.187 | 0.527 | 0.279 | 0.251 | 0.23 | 0.891 | 0.439 | 0.153 | 0.175 | 1.15 | 1.02 | 0.958 | 1.18 | 1.08
5 | NCI-H23 | 0.691 | 0.809 | 0.797 | 0.868 | 0.515 | 0.446 | 0.332 | 0.249 | 0.254 | 0.782 | 0.505 | 0.26 | 0.22 | 0.302 | 0.231 | 0.215 |  | 0.249
6 | NCI-H322M | 0.256 | 0.238 | 0.255 | 0.249 | 0.259 | 0.527 | 0.502 | 0.458 | 0.336 | 0.733 | 0.453 | 0.348 | 0.338 | 0.535 | 0.47 | 0.518 | 0.609 | 0.697
7 | NCI-H441 | 0.615 | 0.656 | 0.553 | 0.582 | 0.386 | 0.207 | 0.211 | 0.218 | 0.175 | 0.206 | 0.383 | 0.304 | 0.463 | 1 | 1.09 | 1.24 | 0.984 | 0.94
8 | NCI-H460 | 0.505 | 0.592 | 0.652 | 0.573 | 0.51 | 0.0549 | 0.128 | 0.0851 | 0.0574 | 0.779 | 0.165 | 0.0691 | 0.053 | 0.77 | 0.673 | 0.571 | 0.505 | 0.598
9 | NCI-H647 | 0.155 | 0.226 | 0.223 | 0.192 | 0.135 | 0.311 | 0.31 | 0.136 | 0.0705 | 1.03 | 0.39 | 0.194 | 0.177 | 0.59 | 0.452 | 0.408 | 0.471 | 0.549
10 | NCI-H727 | 0.438 | 0.285 | 0.426 | 0.473 | 0.307 | 0.665 | 0.412 | 0.52 | 0.653 | 0.225 | 0.358 | 0.319 | 0.308 | 0.697 | 0.614 | 0.519 | 0.758 | 0.574
11 | NCI-H838 | 0.296 | 0.213 | 0.303 | 0.247 | 0.327 | 0.261 | 0.25 | 0.207 | 0.171 | 1.14 | 0.754 | 0.4 | 0.266 | 0.904 | 0.92 | 0.945 | 0.901 | 0.862
12 | NCI-H1355 | 0.674 | 0.868 | 0.781 | 0.761 | 0.739 |  | 0.393 | 0.215 | 0.206 | 0.812 | 0.28 | 0.195 | 0.237 | 0.75 | 0.639 | 0.633 | 0.735 | 0.687
13 | NCI-H1395 | 0.4 | 0.375 | 0.437 | 0.37 | 0.456 |  | 0.572 | 0.476 | 0.284 |  | 0.677 | 0.521 | 0.344 | 0.397 | 0.35 | 0.381 | 0.383 | 0.389
14 | NCI-H1437 | 0.541 | 0.452 | 0.472 | 0.452 | 0.377 | 0.319 | 0.337 | 0.301 | 0.258 | 0.75 | 0.575 | 0.308 | 0.214 | 1.07 | 1.18 | 1.06 | 1.1 | 1.11
15 | NCI-H1651 | 0.439 | 0.393 | 0.412 | 0.332 | 0.491 | 0.529 | 0.491 | 0.305 | 0.162 | 0.763 | 0.544 | 0.199 | 0.168 | 0.551 | 0.397 | 0.482 | 0.479 | 0.564
16 | NCI-H1666 | 0.772 | 0.922 | 0.799 | 0.763 | 0.699 | 0.59 | 0.559 | 0.577 | 0.438 | 0.695 | 0.643 | 0.401 | 0.326 | 0.839 | 0.771 | 0.814 | 0.873 | 0.996
17 | NCI-H1734 | 0.384 | 0.451 | 0.478 | 0.444 | 0.343 |  | 0.256 | 0.193 | 0.373 | 0.618 | 0.376 | 0.156 | 0.188 | 0.544 | 0.361 | 0.522 | 0.572 | 0.54
